In patent US20260001849A1, “NOVEL B0AT1 INHIBITOR” (MITSUBISHI TANABE PHARMA CORPORATION, priority 2023, published 2026):

target: T1, Human BOAT1 (Homo sapiens, UniProt Q695T7); test: hBOAT1 inhibitory test (phenylalanine uptake); format: cell-based; conditions: Human BOAT1 stable expression CHO cells; [3H]-L-phenylalanine uptake, phenylalanine 0.25 mM; radioactivity after 100 to 200 min; read-out: hB0AT1 IC50
T1 construct: expressed in transfected cells
T1 sequence (Q695T7 1-634): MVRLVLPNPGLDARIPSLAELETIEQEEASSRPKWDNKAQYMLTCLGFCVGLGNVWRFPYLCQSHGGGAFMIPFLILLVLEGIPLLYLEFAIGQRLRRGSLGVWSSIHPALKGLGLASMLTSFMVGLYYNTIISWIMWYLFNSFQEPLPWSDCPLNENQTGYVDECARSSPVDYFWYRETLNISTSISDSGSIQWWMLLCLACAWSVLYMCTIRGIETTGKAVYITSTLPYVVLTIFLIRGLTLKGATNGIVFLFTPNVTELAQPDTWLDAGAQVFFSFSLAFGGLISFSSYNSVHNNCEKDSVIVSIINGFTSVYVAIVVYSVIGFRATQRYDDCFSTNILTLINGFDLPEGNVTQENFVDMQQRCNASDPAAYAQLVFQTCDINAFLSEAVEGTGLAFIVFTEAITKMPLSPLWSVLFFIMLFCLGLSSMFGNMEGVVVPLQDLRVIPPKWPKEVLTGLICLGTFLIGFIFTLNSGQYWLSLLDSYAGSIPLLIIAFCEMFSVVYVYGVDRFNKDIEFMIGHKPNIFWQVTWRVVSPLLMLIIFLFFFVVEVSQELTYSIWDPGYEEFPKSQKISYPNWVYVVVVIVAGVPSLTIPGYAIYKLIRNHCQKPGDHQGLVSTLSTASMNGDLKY
Description: A test compound dissolved in dimethyl sulfoxide (DMSO) was added to a 96 well plate for solid phase radioactivity measurement containing a scintillator at the bottom of the well (final concentration of DMSO 0.5%). DMSO alone as a control and DMSO containing N-(4-bromophenyl)-3,5-dichloro-2-hydroxybenzamide (final concentration […]) for the measurement of BOAT1 non-specific uptake were similarly added at 0.5 μL per well. Human BOAT1 stable expression CHO cells suspended in a buffer (buffer containing 96 mM sodium chloride, 2 mM potassium chloride, 1.8 mM calcium chloride, 1 mM magnesium chloride, 0.01% bovine serum albumin, and 10 mM 2-[4-(2-hydroxyethyl)-1-piperazinyl]ethanesulfonic acid) were added by 90 μL to 75000 cells/well. After standing at ordinary temperature for 30 min or longer, the cells were subjected to a phenylalanine uptake experiment. A buffer containing L-phenylalanine and [3,4,5-3H]-L-phenylalanine was added by 10 μL per well (final concentration of phenylalanine 0.25 mM), and the radioactivity of the plate bottom surface at ordinary temperature was measured with a scintillation counter over time, and the radioactivity value after 100 to 200 min was analyzed.

Row | SMILES | IC50
1 | COC(=O)CCCN1CCN(C(=O)CNC(=O)/C=C/c2ccc(C(F)(F)F)cc2)C(c2ccccc2)C1 (centres unmarked) [I-4] | 50 nM
2 | COC(=O)CNc1ccc2c(c1)CCN(C(=O)CNC(=O)/C=C/c1ccc(C(F)(F)F)cc1)C2 [I-11] | 81 nM
3 | COC(=O)Cn1nc(C)c2c1CCN(C(=O)CNC(=O)/C=C/c1ccc(C(F)(F)F)cc1)C2 [I-12] | 89 nM
4 | COC(=O)CCc1cc2c(s1)CN(C(=O)CNC(=O)/C=C/c1ccc(C(F)(F)F)cc1)CC2 [I-13] | 123 nM
5 | CC(C)(C)OC(=O)C1CCN(c2ccc3c(c2)CCN(C(=O)CNC(=O)/C=C/c2ccc(C(F)(F)F)cc2)C3)C1 (centres unmarked) [I-26] | 332 nM
6 | CC(C)(C)OC(=O)CCc1ccc2c(c1)CCN(C(=O)CNC(=O)/C=C/c1ccc(C(F)(F)F)cc1)C2 [I-40] | 996 nM
7 | COc1cc(CC(=O)OC(C)(C)C)cc2c1CN(C(=O)CNC(=O)/C=C/c1ccc(C(F)(F)F)cc1)CC2 [I-43] | 709 nM
8 | COC(=O)c1cccc(C2CCCN(C(=O)CNC(=O)/C=C/c3ccc(C(F)(F)F)cc3F)C2)c1 (centres unmarked) [I-61] | 1670 nM
9 | COC(=O)c1cccc(C2CN(C(=O)CNC(=O)/C=C/c3ccc(C(F)(F)F)cc3F)CCN2C)c1 (centres unmarked) [I-62] | 463 nM
10 | COC(=O)Cc1cc(F)c2c(c1)CCN(C(=O)CNC(=O)/C=C/c1ccc(C(F)(F)F)cc1F)C2 [I-118] | 42 nM
11 | O=C(O)Cc1ccc2c(c1)CCN(C(=O)CNC(=O)/C=C/c1ccc(C(F)(F)F)cc1)CC2 [I-140, 2-[3-[2-[[(E)-3-[4-(trifluoromethyl)phenyl]prop-2-enoyl]amino]acetyl]-1,2,4,5-tetrahydro-3-benzazepin-7-yl]acetic acid] | 436 nM
12 | O=C(O)Cc1ccc2c(c1)CN(C(=O)CNC(=O)/C=C/c1ccc(C(F)(F)F)cc1)C2 [I-142] | 241 nM
13 | N#Cc1c(CC(=O)O)ccc2c1CCN(C(=O)CNC(=O)/C=C/c1ccc(S(F)(F)(F)(F)F)cc1)C2 [I-152] | 96 nM
14 | O=C(O)Cc1cc(Cl)c2c(c1)CCN(C(=O)CNC(=O)/C=C/c1ccc(I)cc1)C2 [I-155] | 84 nM
15 | O=C(O)CCc1ncc2c(n1)CCN(C(=O)CNC(=O)/C=C/c1ccc(C(F)(F)F)cc1)C2 [I-156] | 251 nM
16 | O=C(/C=C/c1ccc(C(F)(F)F)cc1)NCC(=O)N1CCc2cc(N3CCC(C(=O)O)C3)ccc2C1 (centres unmarked) [I-160] | 156 nM
17 | O=C(/C=C/c1ccc(C(F)(F)F)cc1)NCC(=O)N1CCc2cc(N3CCC(C(=O)O)CC3)ccc2C1 [I-161] | 259 nM
18 | CC(Cc1ccc2c(c1)CCN(C(=O)CNC(=O)/C=C/c1ccc(C(F)(F)F)cc1)C2)C(=O)O (centres unmarked) [I-163] | 223 nM
19 | CC(CC(=O)O)c1ccc2c(c1)CCN(C(=O)CNC(=O)/C=C/c1ccc(C(F)(F)F)cc1)C2 (centres unmarked) [I-164] | 386 nM
20 | O=C(O)Cc1cc2c(cn1)CN(C(=O)CNC(=O)/C=C/c1ccc(C(F)(F)F)cc1)CC2 [I-167] | 106 nM
21 | O=C(O)Cc1ccc2c(c1)CN(C(=O)CNC(=O)/C=C/c1ccc(C(F)(F)F)cc1)CC2 [I-168] | 447 nM
22 | O=C(O)CCCc1ccc2c(c1)CCN(C(=O)CNC(=O)/C=C/c1ccc(C(F)(F)F)cc1)C2 [I-170] | 240 nM
23 | COc1cc(CC(=O)O)cc2c1CN(C(=O)CNC(=O)/C=C/c1ccc(C(F)(F)F)cc1)CC2 [I-177] | 171 nM

Results, then the molecule that gave them:

Row | IC50 | SMILES
24 | 96 nM | O=C(/C=C/c1ccc(C(F)(F)F)cc1F)NCC(=O)N1CCN(C[C@H]2C[C@@H](C(=O)O)C2)CC1c1ccc(Cl)cc1 (mixture of isomers) [I-249, 3-[[3-(4-chlorophenyl)-4-[2-[[(E)-3-[2-fluoro-4-(trifluoromethyl)phenyl]prop-2-enoyl]amino]acetyl]piperazin-1-yl]methyl]cyclobutane-1-carboxylic acid]
25 | 872 nM | O=C(O)Cc1cnn2c1CN(C(=O)CNC(=O)/C=C/c1ccc(C(F)(F)F)cc1)CC2 [I-179]
26 | 138 nM | O=C(O)COc1cc(Br)c2c(c1)CCN(C(=O)CNC(=O)/C=C/c1ccc(C(F)(F)F)cc1)C2 [I-181]
27 | 115 nM | O=C(O)Cc1ccc2c(c1)CCN(C(=O)CNC(=O)/C=C/c1ccc(C(F)(F)F)cc1Cl)C2 [I-188]
28 | 424 nM | O=C(O)Cc1ccc2c(c1)CCN(C(=O)CNC(=O)/C=C/c1ccc(C(F)(F)F)c(F)c1)C2 [I-189]
29 | 397 nM | O=C(O)Cc1cccc2c1CCN(C(=O)CNC(=O)/C=C/c1ccc(C(F)(F)F)cc1)C2 [I-192]
30 | 459 nM | O=C(O)CCc1cnn2c1CN(C(=O)CNC(=O)/C=C/c1ccc(C(F)(F)F)cc1)CC2 [I-193]
31 | 192 nM | O=C(O)CCc1nc2c(s1)CN(C(=O)CNC(=O)/C=C/c1ccc(C(F)(F)F)cc1)CC2 [I-200, 3-[5-[2-[[(E)-3-[4-(trifluoromethyl)phenyl]prop-2-enoyl]amino]acetyl]-6,7-dihydro-4H-[1,3]thiazolo[5,4-c]pyridin-2-yl]propanoic acid]
32 | 56 nM | N#Cc1c(CC(=O)O)ccc2c1CCN(C(=O)CNC(=O)/C=C/c1ccc(I)cc1F)C2 [I-203]
33 | 579 nM | O=C(O)Cc1ccc2n(c1=O)CCN(C(=O)CNC(=O)/C=C/c1ccc(C(F)(F)F)cc1F)C2 [I-207]
34 | 224 nM | O=C(O)Cc1ncc2c(n1)CCN(C(=O)CNC(=O)/C=C/c1ccc(C(F)(F)F)cc1)C2 [I-208]
35 | 263 nM | CC(F)(F)c1ccc(/C=C/C(=O)NCC(=O)N2CCc3cc(CC(=O)O)ccc3C2)cc1 [I-211]
36 | 496 nM | COCC1c2ccc(CC(=O)O)cc2CCN1C(=O)CNC(=O)/C=C/c1ccc(C(F)(F)F)cc1 (centres unmarked) [I-212]
37 | 156 nM | O=C(O)Cc1ccc2c(c1)C(O)CN(C(=O)CNC(=O)/C=C/c1ccc(C(F)(F)F)cc1)C2 (centres unmarked) [I-213]
38 | 358 nM | CCC1c2ccc(CC(=O)O)cc2CCN1C(=O)CNC(=O)/C=C/c1ccc(C(F)(F)F)cc1 (centres unmarked) [I-216]
39 | 202 nM | O=C(O)CNc1ccc2c(c1)CN(C(=O)CNC(=O)/C=C/c1ccc(C(F)(F)F)cc1)CC2 [I-217]
40 | 256 nM | Cc1nn(CC(=O)O)c2c1CN(C(=O)CNC(=O)/C=C/c1ccc(C(F)(F)F)cc1)CC2 [I-219]
41 | 100 nM | O=C(O)CCc1cc2c(s1)CN(C(=O)CNC(=O)/C=C/c1ccc(C(F)(F)F)cc1)CC2 [I-220]

same assay, conditions: Human BOAT1 stable expression CHO cells; phenylalanine uptake, phenylalanine 0.25 mM; read-out: hB0AT1 IC50

Row | SMILES | IC50
42 | O=C(O)CCCN1CCN(C(=O)CNC(=O)/C=C/c2ccc(C(F)(F)F)cc2F)C(c2cccc(Br)c2)C1 (single isomer, unassigned) [I-292, 4-[3-(3-bromophenyl)-4-[2-[[(E)-3-[2-fluoro-4-(trifluoromethyl)phenyl]prop-2-enoyl]amino]acetyl]piperazin-1-yl]butanoic acid] | 1200 nM
43 | O=C(O)CCCN1CCN(C(=O)CNC(=O)/C=C/c2ccc(C(F)(F)F)cc2F)C(c2cccc(Br)c2)C1 (single isomer, unassigned) [I-293, 4-[3-(3-bromophenyl)-4-[2-[[(E)-3-[2-fluoro-4-(trifluoromethyl)phenyl]prop-2-enoyl]amino]acetyl]piperazin-1-yl]butanoic acid] | 39 nM
44 | O=C(O)CCCN1CCN(C(=O)CNC(=O)/C=C/c2ccc(C(F)(F)F)cc2F)C(c2ccc(Cl)cc2)C1 (single isomer, unassigned) [I-294, 4-[3-(4-chlorophenyl)-4-[2-[[(E)-3-[2-fluoro-4-(trifluoromethyl)phenyl]prop-2-enoyl]amino]acetyl]piperazin-1-yl]butanoic acid] | 266 nM
45 | O=C(O)CCCN1CCN(C(=O)CNC(=O)/C=C/c2ccc(C(F)(F)F)cc2F)C(c2ccc(Cl)cc2)C1 (single isomer, unassigned) [I-295, 4-[3-(4-chlorophenyl)-4-[2-[[(E)-3-[2-fluoro-4-(trifluoromethyl)phenyl]prop-2-enoyl]amino]acetyl]piperazin-1-yl]butanoic acid] | 51 nM
46 | O=C(/C=C/c1ccc(C(F)(F)F)cc1F)NCC(=O)N1CCN(CC2CC(C(=O)O)C2)CC1c1ccc(Cl)cc1 (single isomer, unassigned) [I-296, 3-[[3-(4-chlorophenyl)-4-[2-[[(E)-3-[2-fluoro-4-(trifluoromethyl)phenyl]prop-2-enoyl]amino]acetyl]piperazin-1-yl]methyl]cyclobutane-1-carboxylic acid] | 747 nM
47 | O=C(/C=C/c1ccc(C(F)(F)F)cc1F)NCC(=O)N1CCN(CC2CC(C(=O)O)C2)CC1c1ccc(Cl)cc1 (single isomer, unassigned) [I-297, 3-[[3-(4-chlorophenyl)-4-[2-[[(E)-3-[2-fluoro-4-(trifluoromethyl)phenyl]prop-2-enoyl]amino]acetyl]piperazin-1-yl]methyl]cyclobutane-1-carboxylic acid] | 37 nM
